Data: PubChem BioAssay (NCI)
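Cells were grown in 96-well plates and exposed to each compound for 48 hours at five concentrations; endpoints were interpolated linearly between bracketing concentrations, or set to the highest concentration if not reached. The concentration for full growth arrest is given as TGI.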

Columns and labels:
Test in all cases: NCI anticancer screen, dose series, 48 h
[1] = test system: HCT-15 colon
[2] = test system: CAKI-1 renal
[3] = test system: UACC-62 melanoma
[4] = test system: SK-MEL-5 melanoma
[5] = test system: PC-3 prostate
[6] = test system: NCI/ADR-RES ovarian
[7] = test system: MDA-N
[8] = test system: HCC-2998 colon
[9] = test system: MDA-MB-231 breast
[10] = test system: NCI-H226 lung
[11] = test system: SNB-75 CNS
[12] = test system: MALME-3M melanoma
[13] = test system: SF-295 CNS
[14] = test system: 786-0 renal
[15] = test system: SW-620 colon
[16] = test system: TK-10 renal
[17] = test system: SK-MEL-2 melanoma
[18] = test system: K-562 leukemia
[19] = test system: SNB-19 CNS
[20] = test system: NCI-H23 lung
[21] = test system: BT-549 breast
[22] = test system: M14 melanoma
[23] = test system: MCF7 breast
[24] = test system: A498 renal
[25] = test system: RXF 393 renal
[26] = test system: HOP-62 NSCLC
[27] = test system: SK-OV-3 ovarian
[28] = test system: SF-539 CNS
[29] = test system: NCI-H460 lung
[30] = test system: HT29 colon
[31] = test system: NCI-H522 lung
[32] = test system: IGROV1 ovarian
[33] = test system: UO-31 renal
[34] = test system: SR leukemia
[35] = test system: T-47D breast
[36] = test system: OVCAR-5 ovarian
[37] = test system: SK-MEL-28 melanoma
[38] = test system: SN12C renal
[39] = test system: HCT-116 colon
[40] = test system: CCRF-CEM leukemia
[41] = test system: SF-268 CNS
[42] = test system: LOX IMVI melanoma
[43] = test system: A549 NSCLC
[44] = test system: RPMI-8226 leukemia
[45] = test system: HL-60(TB) leukemia
[46] = test system: ACHN renal
[47] = test system: KM12 colon
[48] = test system: COLO 205 colon
[49] = test system: UACC-257 melanoma
[50] = test system: U251 CNS
[51] = test system: OVCAR-3 ovarian
[52] = test system: OVCAR-8 ovarian
[53] = test system: MDA-MB-435
[54] = test system: DU-145 prostate
[55] = test system: HS 578T breast
[56] = test system: MOLT-4 leukemia

Measured: TGI

c1ccc([P+](c2ccccc2)(c2ccccc2)c2ccc([P+](c3ccccc3)(c3ccccc3)c3ccccc3)c3ccccc23)cc1
> 100 µM: all assays above
